Measurements taken from patent publication US20090197852A9 (priority 2001, published 2009).
Entries after “also recorded” stand apart in the source; their conditions may differ. Where two headings read alike, the source gives them in different places.

Key:
[1] = tested on: SKBr3 breast cancer cells; conditions: cited from earlier work
[2] = tested on: breast cancer cells; conditions: cited from earlier work
[3] = tested on: MEXF 276L melanoma cells; conditions: cited from earlier work
[4] = tested on: colon adenocarcinoma cells; conditions: cited from earlier work
[5] = tested on: leukemia cells; conditions: cited from earlier work
[6] = tested on: lung cancer cells with wild-type Rb; conditions: cited from earlier work
[7] = tested on: NSCLC cells; conditions: cited from earlier work
[8] = clinical; conditions: human, in vivo; for AUC / AUC(0-t) / Tmax / Cmax: iv; for Cmax: first dose
Experimental: Patients were assessed in 4-week cycles.
PK assessment. PK sampling was obtained during the first treatment cycle only. […] Plasma concentrations were determined by a validated liquid chromatography-mass spectrometry (LC-MS) method.
For patients with a body surface area greater than 2.4 m^2, dosing was calculated using a maximum BSA of 2.4 m^2.
Plasma samples from some of the patients were assayed using a validated good laboratory practice (GLP) compliant analytical method.
All of the patients' plasma samples were analyzed.

[9] = patients treated at 56 mg/m^2; cited from earlier work
[10] = tested on: solid tumors; conditions: cited from earlier work
[11] = 80 mg/m^2 dose level, daily x5, cited from earlier work; for Cmax: read-out: plasma Cmax
[12] = tested on: advanced solid tumors; conditions: cited from earlier work
[13] = tested on: solid tumors and lymphomas; conditions: 3 weeks out of a 4 week cycle, cited from earlier work
[14] = cited from earlier work
[15] = tested on: metastatic melanoma; conditions: cited from earlier work
[16] = Dose limiting toxicity and adverse events in trial of 17-AAG with trastuzumab; conditions: 450 mg/m^2/single administration of 17-AAG once weekly for four weeks
Experimental: The invention was tested in an open-label, dose escalating clinical trial. […] Metastatic disease, if present, was not progressing so as to required palliative treatment. […] Patients were assessed in 4-week cycles.
Dosing. […] If two or more of six evaluable patients entered in a cohort experienced a DLT then the MTD was exceeded; if the previous dose level produced DLT in no more than 1 out of 6 patients, then this dose was considered the MTD and was used for all subsequent patients entered in the phase 2 portion of the study.

[17] = free base form; cited from earlier work
[18] = cellular assays; cited from earlier work
[19] = population PK analysis; cited from earlier work
[20] = Cohort 1, 17-AAG 225 mg/m^2 IV over 120 min with trastuzumab, first dose, mean
[21] = Cohort 2, 17-AAG 300 mg/m^2 IV over 120 min with trastuzumab, first dose, mean
[22] = Cohort 3, 17-AAG 375 mg/m^2 IV over 120 min with trastuzumab, first dose, mean
[23] = Cohort 4, 17-AAG 450 mg/m^2 IV over 120 min with trastuzumab, first dose, mean
[24] = All cohorts combined (225-450 mg/m^2), mean
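Throughout, for AUCext: Open-label dose-escalation clinical trial, plasma drug levels measured by validated LC-MS, sampling during the first 4-week treatment cycle only.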
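Throughout, for AUCtotal: Open-label dose-escalation clinical trial, plasma drug levels measured by validated LC-MS, sampling during the first 4-week treatment cycle only.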
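Throughout, for MRT: Open-label dose-escalation clinical trial, plasma drug levels measured by validated LC-MS, sampling during the first 4-week treatment cycle only.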
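Throughout, for Vss: Open-label dose-escalation clinical trial, plasma drug levels measured by validated LC-MS, sampling during the first 4-week treatment cycle only.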

C=CCNC1=C2C[C@@H](C)C[C@H](OC)[C@H](O)[C@@H](C)/C=C(\C)[C@H](OC(N)=O)[C@@H](OC)/C=C\C=C(/C)C(=O)NC(=CC1=O)C2=O [17-AAG, 17-allylamino-17-demethoxygeldanamycin]
MRT (All cohorts combined, Max): 11.44 h
Vss (All cohorts combined, Max): 308.74 L/m^2
t1/2 (All cohorts combined, Max): 11.42 h
MRT (All cohorts combined, Min): 2.44 h
t1/2 (All cohorts combined, Min): 1.33 h
AUCext [20]: 7.1%
AUCtotal [20]: 8,539.3 ng/mL*h
AUMCtotal [20]: 29,168 ng/mL*(h^2)
Cmax [20]: 3,257.5 ng/mL
Lz [20]: 0.3804 h⁻¹
AUCext [21]: 1.6%
AUCtotal [21]: 16,163 ng/mL*h
AUMCtotal [21]: 107,072 ng/mL*(h^2)
Lz [21]: 0.1637 h⁻¹
AUCext [22]: 2.2%
AUCtotal [22]: 27,983 ng/mL*h
AUMCtotal [22]: 124,179 ng/mL*(h^2)
Lz [22]: 0.1996 h⁻¹
AUCext [23]: 2.8%
AUCtotal [23]: 28,425 ng/mL*h
AUMCtotal [23]: 65,954 ng/mL*(h^2)
Lz [23]: 0.2037 h⁻¹
effect of exposure on client proteins [1]: depletion of erbB2 and destabilization of Raf-1 and mutant p53
effect of exposure on client proteins [2]: depletion of steroid receptors
effect of exposure on client proteins [3]: depletion of Hsp90 and down-regulation of Raf-1 and erbB2
effect of exposure on client proteins [4]: depletion of Raf-1, c-Akt, and Erk1/2
effect of exposure on client proteins [5]: down-regulation of intracellular Bcr-Abl and c-Raf proteins and reduction of Akt kinase activity
effect of exposure on client proteins [6]: degradation of cdk4, cdk6, and cyclin E
effect of exposure on client proteins [7]: depletion of erbB1 and erbB2 levels
Clearance [8, 24]: 536 mL/min
Clearance ([8]; All cohorts combined, Median): 497 mL/min
MRT [8, 24]: 4.71 h
MRT ([8]; All cohorts combined, Median): 4.26 h
Vd ([8]; Vss, All cohorts combined (225-450 mg/m^2), mean): 147 ± 94.8 L
Vd ([8]; Vss, All cohorts combined, Median): 128 L
Vd ([8]; Vz, All cohorts combined (225-450 mg/m^2), mean): 187 ± 156 L
Vd ([8]; Vz, All cohorts combined, Median): 146 L
AUC ([8]; 225 mg/m2): 588 ng·h/mL
AUC(0-t) ([8]; 225 mg/m2): 7950 ng·h/mL
Tmax ([8]; 225 mg/m2): 1.8 h
Cmax ([8]; 225 mg/m2, Cmax, Cohort 1, 17-AAG 225 mg/m^2 IV over 120 min with trastuzumab, mean): 3260 ng/mL
AUC ([8]; 300 mg/m2): 281 ng·h/mL
AUC(0-t) ([8]; 300 mg/m2): 15900 ng·h/mL
Tmax ([8]; 300 mg/m2): 1.9 h
Cmax ([8]; 300 mg/m2, Cmax, Cohort 2, 17-AAG 300 mg/m^2 IV over 120 min with trastuzumab, mean): 4050 ng/mL
AUC ([8]; 375 mg/m2): 490 ng·h/mL
AUC(0-t) ([8]; 375 mg/m2): 27500 ng·h/mL
Tmax ([8]; 375 mg/m2): 1.9 h
Cmax ([8]; 375 mg/m2, Cmax, Cohort 3, 17-AAG 375 mg/m^2 IV over 120 min with trastuzumab, mean): 9400 ng/mL
AUC ([8]; 450 mg/m2): 558 ng·h/mL
AUC(0-t) ([8]; 450 mg/m2): 27900 ng·h/mL
Tmax ([8]; 450 mg/m2): 2 h
Cmax ([8]; 450 mg/m2, Cmax, Cohort 4, 17-AAG 450 mg/m^2 IV over 120 min with trastuzumab, mean): 8110 ng/mL
half-life ([8]; t1/2, All cohorts combined (225-450 mg/m^2), mean): 4.13 ± 2.48 h
half-life ([8]; t1/2, All cohorts combined, Median): 3.42 h
Clearance [9]: 19.9 L/h/m^2
Vz [9]: 93 L/m^2
average AUC [9]: 6,708 nM*h
dose limiting toxicity ([10]; daily for 5 days every 3 weeks): dose limiting reversible hepatotoxicity
maximum tolerated dose (MTD) and recommended Phase 2 dose ([10]; daily for 5 days every 3 weeks): 40 mg/m^2
objective tumor responses ([10]; doses up to 110 mg/m^2 daily for 5 days every 3 weeks): No objective tumor responses were observed
Cmax [11]: 2700 nM
dose at which nausea and vomiting secondary to pancreatitis and grade 3 fatigue were observed ([12]; weekly for 3 out of every 4 weeks): 395 mg/m^2
objective tumor responses ([12]; weekly or twice weekly schedules): No objective tumor responses have been observed in this trial to date
MTD ([13]; weekly 17-AAG): 308 mg/m^2
objective tumor responses ([13]; weekly): No objective tumor responses have been observed to date in this trial
relation between dose and area under the curve (AUC) ([14]; dose levels studied): linear correlation
mean volume of distribution ([14]; highest dose level 450 mg/m^2): 142.6 L
complete or partial responses ([15]; once weekly): No complete or partial responses were recorded
dose at which dose limiting toxicity was observed ([15]; once weekly, elevation of AST): 450 mg/m^2/week
stable disease ([15]; patients treated at 320-450 mg/m^2): two showed radiologically documented long term stable disease
DLT [16]: without reaching DLT in any treated patient

C=CCNc1c(O)cc2c(O)c1C[C@@H](C)C[C@H](OC)[C@H](O)[C@@H](C)/C=C(\C)[C@H](OC(N)=O)[C@@H](OC)/C=C\C=C(/C)C(=O)N2 [17-AAGH2, 17-allylamino-18,21-dihydro-17-demethoxygeldanamycin]
stability to air oxidation [17]: air oxidizes readily

CO[C@H]1/C=C\C=C(/C)C(=O)NC2=CC(=O)C(N)=C(C[C@@H](C)C[C@H](OC)[C@H](O)[C@@H](C)/C=C(\C)[C@@H]1OC(N)=O)C2=O [17-AG, 17-amino-17-demethoxygeldanamycin]
activity relative to 17-AAG [18]: equipotent; also recorded: activity approximately equal to that of 17-AAG
Clearance [9]: 30.8 L/h/m^2
Vz [9]: 203 L/m^2
average AUC [9]: 5,558 nM*h
average t1/2 [9]: 8.6 h
t1/2 [11]: 1.75 h
Cmax [11]: 607 nM
Clearance [19]: 21.3 L/h
